How the values were obtained:
[1] = system: PC3 cells; assay: Apoptosis assay in PC3 cells by flow cytometry (PI); format: cell-based, human; conditions: 24 h, control 1.71%
Experimental: Piperazinylquinoxaline derivative 41 was further tested for its ability to induce apoptosis in PC3 cells. […] (Fig. 5). With an apoptotic percent of 1.71% of the control, the percent of apoptotic PC3 cells induced by compound 41 and GDC0941 in 5 µM after treatment of 24 h were 4.48% and 3.12%, respectively.
Figure 5 Apoptosis induction of compound 41 and GDC0941 in PC3 cells. After treatment with 41 and GDC0941 (5 or 10 µM) for 24 h, PC3 cells were harvested and detected of apoptosis by flow cytometry using PI apoptosis detection kit. Vertical axes stand for the counts of relative number of PC3 cells; horizontal axes stand for the relative fluorescence light intensity measured as pulse-area (FL2-A). TEXT PRINTED IN THE PICTURE: Compound 41: Apo:4.48% (5μM); Apo:32.83% (10μM) | GDC0941: Apo:3.12% (5μM); Apo:5.65% (10μM)
(§1) For flow cytometry analysis, PC3 cells were treated with DMSO, compound 41 and GDC0941 for 24 h. Cells were washed twice with PBS and fixed in 75% ethanol at −20°C. The cell pellet was resuspended in 100 µL of PBS containing […] RNase (Amerson, Solon, OH, USA), then incubated at 37°C for 0.5 h. After incubation, the cells were stained with 20 mL/L propidium iodide (PI, Sigma, St. Louis, MO, USA) at 4°C for 15 min. The fluorescence of cell was measured with FACSCalibur flow cytometer (Becton-Dickinson, Lincoln Park, NJ, USA).

[2] = system: PC3 cells; assay: Cell cycle arrest in PC3 cells by flow cytometry; format: cell-based, human; conditions: 24 h; for cell cycle arrest: 2 and 4 µM
Experimental: Moreover, flow cytometric analysis was performed to determine whether target compounds could induce cell cycle arrest in PC3 cells. GDC0941 was used as the positive control. PC3 cells were treated with compound 41 and GDC0941 in two different concentrations (2 and 4 µM) for 24 h, the results are presented as Figure 6.
Figure 6 Cell cycle arrest test of compound 41 and GDC0941 in PC3 cells. Vertical axes stand for the counts of relative number of PC3 cells; horizontal axes stand for the relative fluorescence light intensity measured as pulse-area (FL2-A). TEXT PRINTED IN THE PICTURE: Compound 41: G1: 53.77 % (2μM); G2: 16.76 % (2μM); S: 29.48 % (2μM); G1: 54.38 % (4μM); G2: 15.87 % (4μM); S: 29.75 % (4μM) | GDC0941: G1: 63.66 % (2μM); G2: 21.86 % (2μM); S: 14.48 % (2μM); G1: 71.43 % (4μM); G2: 19.92 % (4μM); S: 8.65 % (4μM)
as §1

[3] = system: HCT116; assay: MTT assay, antiproliferative activity against HCT116 cells; format: cell-based; conditions: Homo sapiens, HCT-116, 72 h, mean of at least two determinations
Procedure, shortened: (§2)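 Cells grown in RPMI-1640 with 10% FBS at 37°C, 5% CO2, plated 24 h, then exposed to graded compound concentrations for 72 h. Viability read by MTT absorbance; IC50 is the concentration giving 50% absorbance inhibition versus untreated control.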

[4] = system: PC3; assay: MTT assay, antiproliferative activity against PC3 cells; format: cell-based; conditions: Homo sapiens, PC-3, 72 h, mean of at least two determinations
Procedure, shortened: as §2

[5] = molecular target: T1, recombinant human PI3Kα (Homo sapiens, UniProt P42336); assay: Competitive fluorescence polarization (FP) assay, inhibition of PI3Kα; format: biochemical
T1 construct: purchased Echelon Biosciences (Salt Lake City, UT, USA) E-2000
T1 sequence (P42336 whole entry): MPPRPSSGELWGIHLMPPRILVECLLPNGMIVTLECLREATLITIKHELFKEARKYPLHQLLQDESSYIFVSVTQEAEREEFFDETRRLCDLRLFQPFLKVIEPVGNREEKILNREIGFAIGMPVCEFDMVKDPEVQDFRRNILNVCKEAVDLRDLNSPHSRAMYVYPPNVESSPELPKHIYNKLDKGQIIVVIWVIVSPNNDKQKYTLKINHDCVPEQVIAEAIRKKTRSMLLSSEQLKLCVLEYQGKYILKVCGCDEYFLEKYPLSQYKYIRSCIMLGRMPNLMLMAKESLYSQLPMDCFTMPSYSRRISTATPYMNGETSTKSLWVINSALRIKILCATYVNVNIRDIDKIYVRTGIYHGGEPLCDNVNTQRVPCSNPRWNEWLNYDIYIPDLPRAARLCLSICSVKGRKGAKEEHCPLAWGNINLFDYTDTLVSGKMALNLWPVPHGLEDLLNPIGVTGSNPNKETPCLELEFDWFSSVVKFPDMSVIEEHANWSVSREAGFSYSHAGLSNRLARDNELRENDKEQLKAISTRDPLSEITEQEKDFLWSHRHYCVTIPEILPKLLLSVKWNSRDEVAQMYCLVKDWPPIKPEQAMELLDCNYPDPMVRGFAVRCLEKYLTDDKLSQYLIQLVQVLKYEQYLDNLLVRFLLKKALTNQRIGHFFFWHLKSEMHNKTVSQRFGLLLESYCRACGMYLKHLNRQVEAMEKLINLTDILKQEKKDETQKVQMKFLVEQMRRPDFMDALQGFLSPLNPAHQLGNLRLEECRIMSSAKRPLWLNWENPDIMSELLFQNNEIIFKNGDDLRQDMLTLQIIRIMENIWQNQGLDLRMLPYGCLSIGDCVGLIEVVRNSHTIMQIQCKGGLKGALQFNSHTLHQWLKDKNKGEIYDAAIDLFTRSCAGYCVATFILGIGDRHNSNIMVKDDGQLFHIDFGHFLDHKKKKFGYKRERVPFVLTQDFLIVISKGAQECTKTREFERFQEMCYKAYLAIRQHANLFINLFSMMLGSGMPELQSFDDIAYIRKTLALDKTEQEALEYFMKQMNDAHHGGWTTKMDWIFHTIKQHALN
T1 sequence (P27986 whole entry partner): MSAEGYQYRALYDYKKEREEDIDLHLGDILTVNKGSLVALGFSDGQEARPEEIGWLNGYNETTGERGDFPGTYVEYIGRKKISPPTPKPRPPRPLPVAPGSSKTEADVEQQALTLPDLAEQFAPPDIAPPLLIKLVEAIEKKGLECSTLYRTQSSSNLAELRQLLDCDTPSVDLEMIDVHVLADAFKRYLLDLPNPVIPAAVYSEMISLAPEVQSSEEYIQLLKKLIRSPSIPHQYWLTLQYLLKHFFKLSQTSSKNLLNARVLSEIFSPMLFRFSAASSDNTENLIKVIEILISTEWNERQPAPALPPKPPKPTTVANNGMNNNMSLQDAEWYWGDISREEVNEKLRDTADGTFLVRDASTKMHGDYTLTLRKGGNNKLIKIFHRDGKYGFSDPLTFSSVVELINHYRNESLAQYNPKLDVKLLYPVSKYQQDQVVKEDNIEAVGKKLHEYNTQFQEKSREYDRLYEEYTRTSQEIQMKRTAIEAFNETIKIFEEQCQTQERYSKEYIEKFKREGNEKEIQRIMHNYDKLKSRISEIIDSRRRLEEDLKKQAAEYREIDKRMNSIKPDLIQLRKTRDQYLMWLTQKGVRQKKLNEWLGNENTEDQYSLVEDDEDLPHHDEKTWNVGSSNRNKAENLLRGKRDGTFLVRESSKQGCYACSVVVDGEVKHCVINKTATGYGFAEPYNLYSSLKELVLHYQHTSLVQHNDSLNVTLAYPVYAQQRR
Experimental: Selected compounds were then tested for their enzymatic inhibitory activity against PI3Kα using a competitive fluorescence polarization (FP) assay to determine the molecular target of synthesized compounds [21].
The PI3Kα inhibitory test was determined using a competitive fluorescence polarization kinase activity assay. PI3K fluorescence polarization assay kit (catalog No. K-1100) and recombinant human PI3Kα (catalog No. E-2000) were purchased from Echelon Biosciences (Salt Lake City, UT, USA). PI3K reactions were performed in 5 mM HEPES, Ph 7, 2.5 mM MgCl2, 10 mM DTT and 50 µM ATP, using diC8-phosphatidylinositol-4, 5-bisphosphate (PIP2) as the substrate, and the final reaction volumes were 10 µL. For evaluation of the PI3Kα inhibitory activity of target compounds, 50 ng enzyme and 10 µM substate were used per 10 µL reaction volume with the concentrations of inhibitors ranging from 3.2 nM to 10 µM. After incubating for 3 h at room temperature, reactions were quenched by adding chelators. A mixture of phosphoinositide binding protein was added and mixed, followed by the addition of a fluorophore-labeled phosphoinositide tracer. Samples were then mixed in 384-well black Corning nonbinding plates (Corning, NY, USA) and incubated in a dark environment for 1 h to equilibrate. Finally, polarization values were measure using red fluorophores with appropriate filters to determine the extent of enzyme activity in the reaction.

[6] = system: A549; assay: MTT assay, antiproliferative activity against A549 cells; format: cell-based; conditions: Homo sapiens, 72 h, mean of at least two determinations
Procedure, shortened: as §2

Row | IC50 [3] [nM] | melting point [°C] | IC50 [4] [nM] | Binding efficiency index (BEI) ([5]; BEI = pIC50 (M)/MW (kDa), PI3Kα) | IC50 ([5]; FP assay, 50 µM ATP, mean of at least two determinations) [nM] | IC50 [6] [nM] | Compound | percent of apoptotic PC3 cells ([1]; 5 µM) [%] | percent of apoptotic PC3 cells ([1]; 10 µM) [%] | percent of cells in G1 ([2]; 2 µM) [%] | percent of cells in G2 ([2]; 2 µM) [%] | percent of cells in S ([2]; 2 µM) [%] | percent of cells in G1 ([2]; 4 µM) [%] | percent of cells in G2 ([2]; 4 µM) [%] | percent of cells in S ([2]; 4 µM) [%] | cell cycle arrest [2]
1 | – | – | – | – | – | – | CS(=O)(=O)N1CCN(Cc2cc3nc(-c4cccc5[nH]ncc45)nc(N4CCOCC4)c3s2)CC1 [GDC0941, 2-(1H-Indazol-4-yl)-6-(4-methanesulfonyl-piperazin-1-ylmethyl)-4-morpholin-4-yl-thieno[3,2-d]pyrimidine, reference compound] | 3.12 | 5.65 | 63.66 | 21.86 | 14.48 | 71.43 | 19.92 | 8.65 | induced cell cycle arrest in G1 phase
2 | 550 | 177 to 179 | 2210 | 16.5 | 24 | 1320 | COc1ccc(S(=O)(=O)c2nc3ccccc3nc2N2CCN(S(C)(=O)=O)CC2)cc1 [Compound 41, 2-(4-(Methylsulfonyl)piperazin-1-yl)-3-(4-methoxyphenylfsulfonyl)quinoxaline] | 4.48 | 32.83 | 53.77 | 16.76 | 29.48 | 54.38 | 15.87 | 29.75 | showed similar trend while the percent of cell in G1 phase was smaller

— article PMC3419191, “Identification of Novel Piperazinylquinoxaline Derivatives as Potent Phosphoinositide 3-Kinase (PI3K) Inhibitors” (PLoS ONE, 2012)
